Results reported in ChEMBL document CHEMBL1201862, “PubChem BioAssay data set” (2004).
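Dose response: 5 concentrations. Exposure: 48 h. Format: 96-well plates. Endpoint: linear interpolation; highest concentration if not reached. Abbreviation: GI50, concentration required for 50% inhibition of growth.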 Active and inactive are the calls of the source. No stated cut-off is given here; in the data, active = GI50 up to about 1.1 µM and inactive = higher.

How the values were obtained:
Experiment in all cases: NCI tumour cell line growth inhibition, 48 h
A498 = system: A498
CCRF-CEM = system: CCRF-CEM
DU-145 = system: DU-145
HCT-15 = system: HCT-15
HOP-62 = system: HOP-62
HT-29 = system: HT-29
Hs-578T = system: Hs-578T
IGROV-1 = system: IGROV-1
LOX IMVI = system: LOX IMVI
NCI-H23 = system: NCI-H23
OVCAR-5 = system: OVCAR-5
OVCAR-8 = system: OVCAR-8
RPMI-8226 = system: RPMI-8226
RXF 393 = system: RXF 393
SK-MEL-5 = system: SK-MEL-5
SN12C = system: SN12C
SNB-75 = system: SNB-75
SR = system: SR
SW-620 = system: SW-620
UO-31 = system: UO-31

SMILES | GI50 (A498) | GI50 (CCRF-CEM) | GI50 (DU-145) | GI50 (HCT-15) [µM] | GI50 (HOP-62) | GI50 (HT-29) | GI50 (Hs-578T) | GI50 (IGROV-1) | GI50 (LOX IMVI) | GI50 (NCI-H23) | GI50 (OVCAR-5) | GI50 (OVCAR-8) | GI50 (RPMI-8226) | GI50 (RXF 393) | GI50 (SK-MEL-5) | GI50 (SN12C) | GI50 (SNB-75) | GI50 (SR) | GI50 (SW-620) | GI50 (UO-31)
O=[N+]([O-])/C(C(Cl)=C(Cl)Cl)=C(/Cl)Sc1ccccc1 | 2 µM (inactive) | 0.185 µM (active) | 3.32 µM (inactive) | 2.15 | 3.54 µM (inactive) | 2.24 µM (inactive) | 3.15 µM (inactive) | 2.01 µM (inactive) | 1.87 µM (inactive) | 1.77 µM (inactive) | 2 µM (inactive) | 0.255 µM (active) | 0.306 µM (active) | 2.62 µM (inactive) | 2.12 µM (inactive) | 1.81 µM (inactive) | 15 µM (inactive) | 0.378 µM (active) | 0.307 µM (active) | 1.42 µM (inactive)
C/C(=C\c1csc(C)n1)[C@@H]1C[C@@H]2O[C@@H]2CCC[C@H](C)[C@H](O)[C@@H](C)C(=O)C(C)(C)[C@@H](O)CC(=O)O1 [EPOTHILONE A] | < 0.0001 µM (active) | < 0.0001 µM (active) | < 0.0001 µM (active) | < 0.0001 | < 0.0001 µM (active) | < 0.0001 µM (active) | < 0.0001 µM (active) | < 0.0001 µM (active) | < 0.0001 µM (active) | < 0.0001 µM (active) | < 0.0001 µM (active) | < 0.0001 µM (active) | < 0.0001 µM (active) | < 0.0001 µM (active) | < 0.0001 µM (active) | < 0.0001 µM (active) | < 0.0001 µM (active) | < 0.0001 µM (active) | < 0.0001 µM (active) | < 0.0001 µM (active)
COC(=O)C1OC(O[C@H]2CC[C@]3(C)[C@H]4CC=C5[C@@H]6CC(C)(C)CC[C@]6(C(=O)OC)[C@H](O)C[C@@]5(C)[C@]4(C)CC[C@H]3C2(C)C)C(O)C(O)C1O (stereo not given in full) | 12.6 µM (inactive) | 3.1 µM (inactive) | 10 µM (inactive) | 10.5 | 17 µM (inactive) | 3.21 µM (inactive) | 13.8 µM (inactive) | 12.3 µM (inactive) | 3.18 µM (inactive) | 6.21 µM (inactive) | 13.1 µM (inactive) | 13.2 µM (inactive) | 4.9 µM (inactive) | 5.22 µM (inactive) | 13.4 µM (inactive) | 12.9 µM (inactive) | 14.8 µM (inactive) | 3.42 µM (inactive) | 12.4 µM (inactive) | 14 µM (inactive)
O=[N+]([O-])c1ccccc1OCCOc1ccccc1[N+](=O)[O-] | > 100 µM (inactive) | > 100 µM (inactive) | > 100 µM (inactive) | > 100 | > 100 µM (inactive) | > 100 µM (inactive) | > 100 µM (inactive) | > 100 µM (inactive) | > 100 µM (inactive) | > 100 µM (inactive) | > 100 µM (inactive) | 64.6 µM (inactive) | > 100 µM (inactive) | > 100 µM (inactive) | > 100 µM (inactive) | > 100 µM (inactive) | > 100 µM (inactive) | > 100 µM (inactive) | > 100 µM (inactive) | > 100 µM (inactive)
